Results on nine molecules are retold here after patent US20220344599A1, “METAL COMPLEX AND ELECTRON TRANSPORTING MATERIAL COMPRISING SAME” (DYDEN CORPORATION, priority 2019, published 2022).

The nature of the data set: dissolution test of metal complexes in protic polar solvents. In kind it is physicochemical. The arrangement: key to dissolution test, 7.5 g/L: a case where an undissolved remnant was present was evaluated as “X”; a case where a slight undissolved remnant was present was evaluated as “Δ”; a case of complete dissolution was evaluated as “ο”. As to the method:
The metal complexes obtained in [1] were each dissolved in a protic polar solvent shown in Table 1 to produce a liquid material for constructing the electron transport layer of an organic electroluminescent element.
For example, Metal complex L101-Cs was dissolved in 1-heptanol to prepare alcohol solutions of 7.5 g/L to 15 g/L.
In Table 1, a case where an undissolved remnant was present was evaluated as “X”, a case where a slight undissolved remnant was present was evaluated as “Δ”, and a case of complete dissolution was evaluated as “ο”.

On to `Oc1cccc2c1nc(-c1ccccc1)n2-c1cccc(-c2ccc3ccc4cccnc4c3n2)c1` [L101-Cs], for which, where the note is “1-Heptanol”, the “dissolution test, 7.5 g/L” value is on record as “○”.
The same measure, in the same setting: with `Oc1cccc2c1nc(-c1ccccc1)n2-c1cccc(-c2ccc3ccc4cccnc4c3n2)c1` [L101-Rb] the entry was “○”; with `Oc1cccc2c1nc(-c1ccccc1)n2-c1ccc2ccc3cccnc3c2n1` [L102-Cs], “○”.
In the case of `Oc1ccc(-c2ccc3ccc4cccnc4c3n2)c2c1nc(-c1ccccc1)n2-c1ccccc1` [L103-Cs], the “dissolution test, 7.5 g/L” value (1-Heptanol) is “○”.
Regarding `Oc1cccc2oc3cc(-c4ccc5ccc6cccnc6c5n4)cnc3c12` [L301-Cs], the “dissolution test, 5 g/L” value (1-Heptanol, 5 g/L) was “○”. Further, the “dissolution test, 7.5 g/L” value (1-Heptanol) is “Δ” and the “dissolution test, 7.5 g/L” value (2-Methoxyethanol) is reported as “○”. For the same molecule, the “dissolution test, 15 g/L” value (2-Methoxyethanol) is given as “○”.
Turning to `O=P(c1ccccc1)(c1ccc2ccc3cccnc3c2n1)c1ccc(O)c2c1oc1cccnc12` (stereo not drawn) [L302-Cs], where the note is “1-Heptanol”, the “dissolution test, 7.5 g/L” value is “○” and the “dissolution test, 15 g/L” value is “○”.
Turning to `O=P(c1ccccc1)(c1ccc2ccc3cccnc3c2n1)c1ccc(O)c2c1oc1cccnc12` (stereo not drawn) [L302-Li], for the setting “1-Heptanol”, the “dissolution test, 7.5 g/L” value is recorded as “○” and the “dissolution test, 15 g/L” value is given as “○”.
On to `O=P(c1ccccc1)(c1ccc2ccc3cccnc3c2n1)c1ccc(O)c2c1oc1cccnc12` (stereo not drawn) [L302-Rb], for which, for the setting “1-Heptanol”, the “dissolution test, 7.5 g/L” value was “○” and the “dissolution test, 15 g/L” value is on record as “○”.
Take `O=P(c1ccccc1)(c1ccccc1)c1ccc2ccc3ccc(-c4ccc(O)c5c4oc4cccnc45)nc3c2n1` [L303-Cs]: the “dissolution test, 7.5 g/L” value (1-Heptanol) is recorded as “○”.
